# From patent US6696471B2, “Aminopyrrole compounds” (Syntex (U.S.A.) LLC, priority 2001, dated 2004)
# pIC50: −log10 of the molar value.
# Molecular target: T1, p38 MAP kinase (Homo sapiens, UniProt Q16539)
# T1 construct: made in house; host or cells: E. coli (co-expressed with SEK-1 and MEKK)
# Experiment: Inhibition of p-38 (MAP) kinase in vitro assay (transfer of γ-33P from ATP to Myelin Basic Protein)
# Type: biochemical
# Conditions: phosphorylated recombinant p38 MAP kinase, MBP substrate, γ-33P-ATP, 30° C.; read-out: p-38 inhibitory activity, IC50
# Description: Inhibition Of p-38 (MAP) Kinase . . . In Vitro Assay
# The p-38 MAP kinase inhibitory activity of compounds of this invention in vitro was determined by measuring the transfer of the γ-phosphate from γ-^33P-ATP by p-38 kinase to Myelin Basic Protein (MBP), using the a minor modification of the method described in Ahn, N. G.; et al. J. Biol. Chem. Vol. 266(7), 4220-4227, (1991).
# The phosphorylated form of the recombinant p38 MAP kinase was expressed with SEK-1 and MEKK in E. Coli and then purified by affinity chromatography using a Nickel column.
# The phosphorylated p38 MAP kinase was diluted in kinase buffer (20 mM 3-(N-morpholino)propanesulfonic acid, pH 7.2, 25 mM β-glycerol phosphate, 5 mM ethylene glycol-bis (beta-aminoethyl ether)-N,N,N′,N′-tetraacetic acid, 1 mM sodium vanadate, 1 mM dithiothreitol, 40 mM magnesium chloride). Test compound dissolved in DMSO or only DMSO (control) was added and the samples were incubated for 10 min at 30° C. The kinase reaction was initiated by the addition of a substrate cocktail containing MBP and γ-^33P-ATP. After incubating for an additional 20 min at 30° C., the reaction was terminated by adding 0.75% phosphoric acid. The phosphorylated MBP was then separated from the residual γ-^33P-ATP using a phosphocellulose membrane (Millipore, Bedford, Mass.) and quantitated using a scintillation counter (Packard, Meriden, Conn.).
# Compounds of the invention were active in this assay. The p-38 inhibitory activities (expressed as IC50, the concentration causing 50% inhibition of the p-38 enzyme being assayed) of some compounds of the invention are: […]
# T1 sequence (Q16539 whole entry): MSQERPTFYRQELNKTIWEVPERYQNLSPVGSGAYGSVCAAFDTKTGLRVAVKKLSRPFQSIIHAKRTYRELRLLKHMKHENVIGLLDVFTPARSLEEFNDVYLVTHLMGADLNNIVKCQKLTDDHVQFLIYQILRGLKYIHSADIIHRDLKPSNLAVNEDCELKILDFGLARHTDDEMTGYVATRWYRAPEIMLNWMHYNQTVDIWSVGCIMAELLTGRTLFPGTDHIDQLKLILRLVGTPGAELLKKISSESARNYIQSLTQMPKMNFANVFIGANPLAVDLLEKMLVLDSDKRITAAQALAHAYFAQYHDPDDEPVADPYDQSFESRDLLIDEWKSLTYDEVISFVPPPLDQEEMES
row,pIC50,Structure (SMILES)
1,6.92,Nc1c(C(=O)c2cccc(OC[C@H](O)CO)c2)cc(-c2cccnc2)n1-c1ccc(F)cc1 [Cpd 4]
2,6.79,Nc1c(C(=O)c2ccccc2)cc(-c2cccnc2)n1-c1ccc(F)cc1 [Cpd 1]
3,6.77,COc1cccc(C(=O)c2cc(-c3cccnc3)n(-c3ccc(F)cc3)c2N)c1 [Cpd 2]
4,6.33,Nc1c(C(=O)c2cccc(O)c2)cc(-c2cccnc2)n1-c1ccc(F)cc1 [Cpd 3]
